The record followed here is patent US20220218736A1, “NEW THERAPY” (INDEX PHARMACEUTICALS AB, priority 2018, published 2022).

Oligonucleotides are written 5' to 3', each unit as a sugar letter and its base; * is a phosphorothioate linkage, no mark a phosphodiester; rarer units and linkages stand in square brackets, end groups in braces. Plain capitals give the bases only. d = 2'-deoxy (DNA)

The test system of data set [1] is patients with moderate-to-severe active UC. In words: Randomized, double-blind, placebo-controlled clinical trial of cobitolimod; symptomatic remission. In kind it is in vivo, human. Here is the method:
In this randomized, double-blind, placebo-controlled trial, 131 patients with moderate-to-severe active UC were randomized to receive two single doses of the oligonucleotide cobitolimod [30 mg] or placebo administered topically during lower GI endoscopy at baseline and Week 4. The primary endpoint was clinical remission, defined as Clinical Activity (Rachmilewitz) Index [CAI]≤4, at Week 12. Secondary endpoints included mucosal healing and symptomatic remission of key patient-reported outcomes [absence of blood in stool and weekly stool frequency <35].
Eligible patients were adults with moderate to severely active ulcerative colitis with a Clinical Activity Index [CAI] of ≥9 and an endoscopic Mayo score of ≥2, despite treatment with glucocorticosteroids [GCS] [prednisolone] equivalent ≥10 mg/day] for ≥2 weeks prior to inclusion, and previously having failed or been intolerant to treatment with mesalazine ≥2.4 g/day for ≥4 weeks, GCS with at least 0.75 mg/kg as a starting dose, azathioprine or mercaptopurine for ≥3 months, and/or one adequate treatment course of a TNF-α inhibitor. Patients may have tried treatment with cyclosporine or tacrolimus before the trial. Four patients in the placebo group [9.3%] and 5 patients in the cobitolimod group [6.2%] had used cyclosporine prior to the study start, but not in the study.
During the trial, patients could be taking sulfasalazine, aminosalicylates, or thiopurines, and should be on oral GCS at stable doses. Concurrent therapies with cyclosporine, tacrolimus or TNF-α inhibitors during the trial or in the 4 weeks before enrolment, or antibiotics or non-steroidal anti-inflammatory drugs [NSAIDs] in the 2 weeks before enrolment were not permitted.
Eligible patients were randomized in a 2:1 ratio to receive administration of cobitolimod via endoscopy [30 mg] at Week 0 and 4, or matching placebo diluted in 50 mL of sterile water after adequate bowel cleaning for stool content. The application was done proximally to the site of mucosal inflammation, or in the transverse section of the colon in the event of extensive colitis, using a spray catheter during endoscopy. Patients were asked to remain recumbent for 2 h after administration. Patients were followed up with visits after 1, 4, 8, 12, 22, and 52 weeks. At Weeks 0, 4, and 12, patients underwent endoscopic evaluation and biopsies were taken from the most inflamed mucosal area. ICON [Texas, USA] produced the randomization code by a computer-generated procedure, which used the method of randomly permuted blocks. Oral GCS treatment was mandatory at a stable daily dose of >10 mg initiated at least 2 weeks prior to inclusion. Steroid tapering was done to a standard tapering schedule according to European Crohn's and Colitis Organisation [ECCO] guidelines when the patient had reached clinical remission, the earliest at Week 12.
The primary endpoint was induction of clinical remission at Week 12, defined as a CAI score of ≤4. […] Secondary endpoints included mucosal healing [endoscopic Mayo sub-score ≤1, endoscopies not centrally read]; clinical remission at Weeks 1, 4, 8, 22 and 52; clinical remission and mucosal healing; symptomatic remission [defined as absence of blood in stool and weekly stool frequency of <35]; histological Geboes score at Week 4 and 12 as assessed by a single trial histopathologist; time to colectomy; and quality of life based on the inflammatory bowel disease questionnaire [IBDQ] and the 36-item short-form survey [SF36] score. Post hoc, the combined score for subjects who achieved both symptomatic remission and mucosal healing was defined.

The subject of data set [2] is patient with ulcerative colitis refractory to steroids and immunosuppressive therapies. In words: Compassionate use program, patient p12; colitis activity index (CAI) course. Format: in vivo, human. The source says:
This example relates to unpublished experimental data that was collected as part of a compassionate use program. A diagnosis of ulcerative colitis was established based on clinical, endoscopic and histological features. Written consent was received for the patient and the treatment approved by the relevant local ethics committee.
The patient was a person who was first diagnosed with ulcerative colitis 5 years previously and who had become refractory to steroids and immunosuppressive therapies (GCS, infliximab and natural IFN-β). In the form of an experimental add-on therapy, relapses were treated for 4 years with natural Interferon-beta (Fiblaferon). […] A severe relapse in January 2010 was treated with high doses of steroids in combination with azathioprine and 5-ASA without success. […] The treatment with a high dose of steroid in combination with Infliximab had some effect in reducing the CAI score from 14 to 9 in March 2010. However, the subject was still in a very active state of the disease. […]
The patient received 3 doses of 30 mg cobitolimod diluted in 50 mL of sterile water at 4 week intervals as an add on to current therapies. Application of drug was performed during colonoscopy with the aid of a spraying catheter inserted through the colonoscopies biopsy channel and delivered approximately to the upper portion of the descending colon or to the transverse region.
Depicted is the colitis activity index [CAI] against the time in months. […] 2011 when the treating physician last contacted all the patients to follow-up on the treatments.

Data set [3] has as its system chronic DSS-induced colitis. As to the kind of experiment: Chronic DSS-induced mouse model of colitis; colon length and weight/length ratio. In kind it is in vivo, C57BL/6 mice. To be noted: Day 30; for colon-shortening effects of DSS (colon length): Days 4-28 every 4 days. The source says:
The objective of this study was to test the efficacy of cobitolimod as a maintenance therapy in the chronic DSS-induced mouse model of colitis.
37 male C57BL/6 mice were enrolled in the chronic DSS-induced colitis study and housed for a stabilization period of 5 days prior to the study. All animals were housed in HEPA-ventilated cages with sani-chips bedding. Domes and sterile cotton scratch pads were provided for enrichment. Fluorescent lighting was provided on a 12-hour cycle. Temperature and humidity were monitored and recorded daily and maintained to 20-23° C. temperature, and 30-70% relative humidity. 2018S 18% protein rodent maintenance diet was provided ad libitum.
Cobitolimod was diluted in saline either to 125 μg/100μ1 (1.25 μg/μl, dose 1) or 500 μg/100 μl (5 μg/μl, dose 2) in the beginning of the experiment. The solution was aliquoted and kept at 4° C. for the duration of the experiment. At each administration day 100 μl was administered to the mice rectally. FTY-720 (S1P1 receptor inhibitor) was dissolved in dH2O and served as positive control. For a dose of 1 mg/kg, using an average body weight of 30 grams, the compound was prepared and 100 μL orally dosed daily to each animal.
9 week old mice received 2% DSS dissolved into autoclaved water ad libitum (Group 2-5, n=8 each per group) for 5 days, and were switched to autoclaved drinking water for the next five days. This cycle was repeated, alternating between DSS treatment and autoclaved water, every five days for a duration of 30 days in total. During each 5-Day DSS treatment phase, fresh 2% DSS was provided on the third day of the five-day cycle. Group 1 (n=5) served as a control (naïve mice) that received only autoclaved water ad libitum throughout the study. On Day 4, mice in Group 3 (n=8) were orally dosed with FTY-720 as positive control (Group 3, n=8) and continued daily dose until end of the study. Also starting on Study Day 4, animals were dosed with Vehicle (Group 2, […]), or with two different doses of cobitolimod (Group 4 and Group 5, n=8 per group) intrarectally. […] Groups 2, 4, and 5 were dosed again on Days 8, 12, 16, 20, 24, and 28.
Body weight, stool consistency, stool blood, body condition score, and physical health were recorded on dosing days, and two days after each dosing day from at Day 0 through termination on Study Day 30. […] Animals that lost greater than 20% of their pre-treatment body weight were monitored and fed diet/hydro gel for 72 hrs. No animals were terminated due to prolonged body weight loss, or signs of pain and distress due to disease.
The study was terminated on Day 30, and necropsy was performed on all animals. Spleens were weighed and then discarded. Colon length and weight was recorded, and the weight/length ratio calculated for each animal. […]

Setting [4] is: second multi-dose regime, until March 2011.

With “5′-G*G*A*ACAGTTCGTCCAT*G*G*C-3′ (SEQ ID NO:1) (DNA dG*dG*dA*dAdCdAdGdTdTdCdGdTdCdCdAdT*dG*dG*dC) [cobitolimod]”, the “delta between active drug and placebo, symptomatic remission” value in data set [1] (week 4) was found to be 18.1%; in data set [1] (week 8) it was 16.8%; in data set [1] (week 12) it was 11.8%. The “percentage of patients in symptomatic remission” value in data set [1] (week 4, 30 mg at week 0, topically during endoscopy) is 32.1%; in data set [1] (week 8, 30 mg at weeks 0 and 4), 28.4%; in data set [1] (week 12, 30 mg at weeks 0 and 4, no dose at week 8), 23.5%. The figures for the “decrease in percentage of patients in remission” value in data set [1] (week 8 as compared to week 4) and in data set [1] (week 12 as compared to week 8) were 3.7% and 4.9%, respectively. In addition, the “time patient kept in remission by repeat dosing” value in data set [2] (first multi-dose regime (May, June and July)) is on record as 3 months; in data set [2] (setting [4]) it was “over five”. In addition, in data set [2] (first multi-dose regime, after week 4, with last dose and steroid tapering), the “time complete clinical remission was further maintained” value was “two”. In addition, in data set [2] (one week after first 30 mg dose, add-on to current therapies), the “drop in the CAI score” value was 4 points. Further, the “time to clinical remission” value in data set [2] (second multi-dose regime started 25 Aug. 2010) was ≤ 4 weeks. Further, the “time complete clinical remission was maintained” value in data set [2] (setting [4]) was 5 months. For the same substance, the remission status entry in data set [2] (week 4 of first multi-dose regime, with continued steroid tapering) is reported as “complete remission”; in data set [2] (week 8 of second multi-dose regime), “complete clinical remission”. For the same substance, the “colon-shortening effects of DSS (colon length)” value is on record as “significantly reduced” in data set [3] (125 μg intrarectally) and “reduced” in data set [3] (500 μg intrarectally). Also, the colonic weight/length ratio entry in data set [3] (125 μg intrarectally) and in data set [3] (500 μg intrarectally) was “decreased” each time.

Turning to “Infliximab: TNF-α inhibitor approved for the treatment of moderate to severe ulcerative colitis [reference compound]”, the “CAI score after treatment” value in data set [2] (high dose of steroid in combination with Infliximab, reduced from 14, March 2010) turned out to be 9. Besides, the “adverse event after treatment” value in data set [2] (one dose at the end of January, event in February 2010) is listed as “severe salmonellosis with septicemia”.
